“Also recorded” adds a separate entry of the source. Where two headings read alike, the source gives them in different places.
Key:
[1] = system: HA protein of pandemic human influenza A/H1N1 virus; format: cell-based
[2] = system: influenza virus A/ostrich/Denmark/725/96 (H5N2); format: cell-based
[3] = system: influenza virus A/ostrich/Denmark/725/96 (H5N2); format: cell-based; remark: listed apart in the source
[4] = system: influenza virus A/ostrich/Denmark/725/96 (H5N2); experiment: microbe, parasite or virus in culture; format: cell-based; settings: for IC50: H5N2, MDCK
in vitro = settings: dog
influenza virus = settings: previously reported; read-out: IC50, anti-influenza virus activity in vitro; cited from earlier work
[5] = 72 h, read-out: IC50 (compound concentration required to inhibit virus plaque production by 50%)
[6] = read-out: p[IC50] = −log[IC50] (converted)

With `CC(=O)O[C@H]1[C@H](C)O[C@H](OC[C@H]2O[C@@H](n3ccc(=O)n(C(=O)c4ccccc4)c3=O)[C@@H]3OC(C)(C)O[C@@H]32)C[C@@H]1O[Si](C)(C)C(C)(C)C` [Compound 2] the “Mature form of HA protein” value [1] was “not detected”, the “Yield of HA protein in infected cells” value [1] was “reduced the formation of HA glycoprotein in a dose-dependent manner; also recorded: reduced by compound 2 in a dose-dependent manner; also recorded: dose-dependent decrease of HA glycoprotein production” and the “Inhibition of virus propagation depending on time of addition” value [2] was “inhibited the propagation of influenza virus only when it is added to the cells after viral infection”. For the same compound, the “Reduction of virus-induced cytopathic effect (antiviral activity)” value (from here on “Reduction”) [3] was “significantly reduced the CPE”, the “Average size and plaque number” value [4] was “markedly reduced in a dose-dependent manner” and the “SI (selectivity index, ratio of CC50 to IC50)” value [4] was 5.27. The IC50 [4, 5] was 82 ± 6.81 µM, the IC50 [4, 6] was 81.3 µM and the CC50 (in vitro) was 432 µM.
For `CC1(C)O[C@@H]2[C@H](O1)[C@@H](CO[C@@H]1C[C@@H](OCc3ccccc3)[C@H](OCc3ccccc3)[C@@H](CO)O1)O[C@H]2n1ccc(=O)n(C(=O)c2ccccc2)c1=O` [IW7, reference compound], the “SI (selectivity index, ratio of CC50 to IC50)” value [4] is listed as 1.95, the IC50 [4, 5] is listed as 63 ± 4.17 µM and the IC50 (influenza virus) is listed as 63 µM. For the same compound, the CC50 (in vitro) was 123 µM.
With `CCC(CC)O[C@@H]1C=C(C(=O)O)C[C@H](N)[C@H]1NC(C)=O` [Oseltamivir carboxylate, reference compound] the IC50 [4, 5] was ~0.15 µM and the CC50 (in vitro) was > 100 µM.
In the case of `CC(=O)OC[C@H]1OC(OC[C@H]2O[C@@H](n3ccc(=O)[nH]c3=O)[C@@H]3OC(C)(C)O[C@@H]32)C[C@@H](OC(C)=O)[C@@H]1OC(C)=O` (some centres unmarked) [Compound 6], the “SI (selectivity index, ratio of CC50 to IC50)” value [4] is reported as 1.08, the IC50 [4, 5] is reported as 575 ± 17.2 µM and the IC50 [4, 6] is reported as 575 µM. The CC50 (in vitro) was 620 µM.
With `CC1(C)O[C@@H]2[C@H](O1)[C@@H](CO[C@@H]1C[C@@H](OCc3ccccc3)[C@H](OCc3ccccc3)[C@@H](COCc3ccccc3)O1)O[C@H]2n1ccc(=O)n(C(=O)c2ccccc2)c1=O` [Compound 4] the “Reduction” value [3] was “significantly reduced the CPE”, the “SI (selectivity index, ratio of CC50 to IC50)” value [4] was 4.85 and the IC50 [4, 5] was 99 ± 5.23 µM. The IC50 [4, 6] was 100 µM and the CC50 (in vitro) was 480 µM.
In the case of `CC1(C)O[C@@H]2[C@H](O1)[C@@H](CO[C@@H]1C[C@@H](OCc3ccccc3)[C@H](OCc3ccccc3)[C@@H](CO[Si](C)(C)C(C)(C)C)O1)O[C@H]2n1ccc(=O)[nH]c1=O` [Compound 5], the “SI (selectivity index, ratio of CC50 to IC50)” value [4] is reported as 1.56, the IC50 [4, 5] is reported as 96 ± 7.64 µM and the IC50 [4, 6] is reported as 97.7 µM. For the same compound, the CC50 (in vitro) was 150 µM.
In the case of `CC(=O)O[C@H]1[C@H](C)O[C@H](OC[C@H]2O[C@@H](n3ccc(=O)[nH]c3=O)[C@@H]3OC(C)(C)O[C@@H]32)C[C@@H]1O[Si](C)(C)C(C)(C)C` [Compound 1], the “SI (selectivity index, ratio of CC50 to IC50)” value [4] is reported as 1.10, the IC50 [4, 5] is reported as 175 ± 8.22 µM and the IC50 [4, 6] is reported as 174 µM. The CC50 (in vitro) was 193 µM.
With `CC1(C)O[C@@H]2[C@H](O1)[C@@H](CO[C@@H]1C[C@@H](O)[C@H](O)[C@@H](CO)O1)O[C@H]2n1ccc(=O)[nH]c1=O` [Compound 7] the “Cytotoxicity (in words)” value (MDCK cells) was “low”, the “SI (selectivity index, ratio of CC50 to IC50)” value [4] was 1.15 and the IC50 [4, 5] was 721 ± 23.2 µM. The IC50 [4, 6] was 724 µM and the CC50 (in vitro) was 828 µM.
With `CC1(C)O[C@@H]2[C@H](O1)[C@@H](CO[C@@H]1C[C@@H](O)[C@H](O)[C@@H](CO)O1)O[C@H]2n1ccc(=O)n(Cc2ccccc2)c1=O` [Compound 8] the “Cytotoxicity (in words)” value (MDCK cells) was “low”, the “SI (selectivity index, ratio of CC50 to IC50)” value [4] was 1.93 and the IC50 [4, 5] was 346 ± 10.5 µM. It also gave an IC50 [4, 6] of 347 µM and a CC50 (in vitro) of 669 µM.
With `O=c1ccn([C@@H]2O[C@H](CO[C@@H]3C[C@@H](O)[C@H](O)[C@@H](CO)O3)[C@@H](O)[C@H]2O)c(=O)[nH]1` [Compound 9] the “Cytotoxicity (in words)” value (MDCK cells) was “low”, the “SI (selectivity index, ratio of CC50 to IC50)” value [4] was 1.95 and the IC50 [4, 5] was 410 ± 11.2 µM. It also gave an IC50 [4, 6] of 407 µM and a CC50 (in vitro) of 800 µM.
For `CC1(C)O[C@@H]2[C@H](O1)[C@@H](CO[C@@H]1C[C@@H](OCc3ccccc3)[C@H](OCc3ccccc3)[C@@H](CO[Si](C)(C)C(C)(C)C)O1)O[C@H]2n1ccc(=O)n(C(=O)c2ccccc2)c1=O` [IW3, reference compound], the “SI (selectivity index, ratio of CC50 to IC50)” value [4] is given as 8.89, the IC50 [4, 5] is given as 72 ± 5.2 µM and the IC50 (influenza virus) is given as 72 µM. It also gave a CC50 (in vitro) of 640 µM.
With `CC1(C)O[C@@H]2[C@H](O1)[C@@H](CO[C@@H]1C[C@@H](OCc3ccccc3)[C@H](OCc3ccccc3)[C@@H](COCc3ccccc3)O1)O[C@H]2n1ccc(=O)[nH]c1=O` [Compound 3] the “Reduction” value [3] was “significantly reduced the CPE”, the “SI (selectivity index, ratio of CC50 to IC50)” value [4] was 4.07 and the IC50 [4, 5] was 100 ± 9.84 µM. It also gave an IC50 [4, 6] of 100 µM and a CC50 (in vitro) of 407 µM.

— paper PMC5578090, “Biological Evaluation of Uridine Derivatives of 2-Deoxy Sugars as Potential Antiviral Compounds against Influenza A Virus” (International Journal of Molecular Sciences, 2017)
